Measured values: patent US20240317800A1, “NOVEL COMPOUNDS AND ANTIBACTERIAL COMPOSITION COMPRISING THE SAME” (KOREA INSTITUTE OF OCEAN SCIENCE & TECHNOLOGY, priority 2022, published 2024)
Values after ≈ are worked out from the molar mass of the structure shown.

Tested on: Mycoplasma hyorhinis ATCC 17981
Test: Mycoplasma inhibitory activity, broth dilution assay (MIC)
Format: cell-based
Conditions: ATCC17981, 168 h, PPLO liquid medium, 7 days, 37° C., 5% CO2, lowest concentration at which bacteria did not grow, read-out: MIC (minimum inhibitory concentration)
Procedure: For compounds 1 to 3, the inhibitory activity against Mycoplasma hyorhinis was evaluated using a broth dilution assay. Briefly, an experimental strain Mycoplasma hyorhinis ATCC 17981 was cultured in a PPLO liquid medium at 37° C. in a 5% CO2 incubator. […] 100 μL of the culture medium, which made with the strain suspension at approximately 2×10^4 CFU/mL, was added to each well of a 96-well plate. The plates were incubated for 7 days in a 37° C., 5% CO2 incubator. As the bacteria grew, the medium turned yellow. […] BioMycoX® (CellSafe, Korea) was used as a positive control.

MIC | Structure (SMILES)
31 µg/mL (≈ 44.6 µM) | CCCCCCCCCCC[C@@H]1CC(=O)N[C@@H](CCC(=O)O)C(=O)N[C@@H](CC(C)C)C(=O)N[C@H](CC(C)C)C(=O)N[C@@H](CC(C)C)C(=O)O1 [Compound 1, Bacilotetrin C]
31 µg/mL (≈ 43.7 µM) | CCC(C)CCCCCCCC[C@@H]1CC(=O)N[C@@H](CCC(=O)O)C(=O)N[C@@H](CC(C)C)C(=O)N[C@H](CC(C)C)C(=O)N[C@@H](CC(C)C)C(=O)O1 (stereo partly drawn) [Compound 2, Bacilotetrin D]
31 µg/mL (≈ 43.7 µM) | CC(C)CCCCCCCCC[C@@H]1CC(=O)N[C@@H](CCC(=O)O)C(=O)N[C@@H](CC(C)C)C(=O)N[C@H](CC(C)C)C(=O)N[C@@H](CC(C)C)C(=O)O1 [Compound 3, Bacilotetrin E]
